This note sets out measurements from publication PMC7311170, “Moyamoya disease factor RNF213 is a giant E3 ligase with a dynein-like core and a distinct ubiquitin-transfer mechanism” (eLife, 2020).

Test [1] concerns the target T1, RNF213 (mouse, full-length) (Mus musculus, UniProt E9Q555).
T1 construct: full length, 5148 residues, 584 kDa, C-terminal Gly3-His10 tag kept; codon-optimised, High Five insect cells; monomer; modelled residues 476-5148
Briefly: cryo-EM structure. It is filed as binding. The note with it: co-purified ATP, Mg; bound to catalytically inactive AAA2, contacts from AAA3.

For test [2], the target named is T1, RNF213 (mouse, full-length). Nature of the test: NADH-coupled ATPase assay. It counts as biochemical. The note with it: 2 mM ATP, equimolar MgCl2 added, pH 7.2, 30 C; AAA3 and AAA4 proposed competent sites; rate only in figure.
Test [3] addresses T2, RNF213 (mouse, full-length) (Mus musculus, UniProt E9Q555, R4753K).
T2 construct: full length, 5148 residues, 584 kDa, C-terminal Gly3-His10 tag kept; codon-optimised, High Five insect cells; monomer; modelled residues 476-5148
Nature of the test: NADH-coupled ATPase assay. The note with it: 2 mM ATP, equimolar MgCl2 added, pH 7.2, 30 C; Moyamoya founder mutant (human R4810K); rate only in figure. It is filed as biochemical.

T1 sequence (E9Q555 whole entry, the tested form may be a part): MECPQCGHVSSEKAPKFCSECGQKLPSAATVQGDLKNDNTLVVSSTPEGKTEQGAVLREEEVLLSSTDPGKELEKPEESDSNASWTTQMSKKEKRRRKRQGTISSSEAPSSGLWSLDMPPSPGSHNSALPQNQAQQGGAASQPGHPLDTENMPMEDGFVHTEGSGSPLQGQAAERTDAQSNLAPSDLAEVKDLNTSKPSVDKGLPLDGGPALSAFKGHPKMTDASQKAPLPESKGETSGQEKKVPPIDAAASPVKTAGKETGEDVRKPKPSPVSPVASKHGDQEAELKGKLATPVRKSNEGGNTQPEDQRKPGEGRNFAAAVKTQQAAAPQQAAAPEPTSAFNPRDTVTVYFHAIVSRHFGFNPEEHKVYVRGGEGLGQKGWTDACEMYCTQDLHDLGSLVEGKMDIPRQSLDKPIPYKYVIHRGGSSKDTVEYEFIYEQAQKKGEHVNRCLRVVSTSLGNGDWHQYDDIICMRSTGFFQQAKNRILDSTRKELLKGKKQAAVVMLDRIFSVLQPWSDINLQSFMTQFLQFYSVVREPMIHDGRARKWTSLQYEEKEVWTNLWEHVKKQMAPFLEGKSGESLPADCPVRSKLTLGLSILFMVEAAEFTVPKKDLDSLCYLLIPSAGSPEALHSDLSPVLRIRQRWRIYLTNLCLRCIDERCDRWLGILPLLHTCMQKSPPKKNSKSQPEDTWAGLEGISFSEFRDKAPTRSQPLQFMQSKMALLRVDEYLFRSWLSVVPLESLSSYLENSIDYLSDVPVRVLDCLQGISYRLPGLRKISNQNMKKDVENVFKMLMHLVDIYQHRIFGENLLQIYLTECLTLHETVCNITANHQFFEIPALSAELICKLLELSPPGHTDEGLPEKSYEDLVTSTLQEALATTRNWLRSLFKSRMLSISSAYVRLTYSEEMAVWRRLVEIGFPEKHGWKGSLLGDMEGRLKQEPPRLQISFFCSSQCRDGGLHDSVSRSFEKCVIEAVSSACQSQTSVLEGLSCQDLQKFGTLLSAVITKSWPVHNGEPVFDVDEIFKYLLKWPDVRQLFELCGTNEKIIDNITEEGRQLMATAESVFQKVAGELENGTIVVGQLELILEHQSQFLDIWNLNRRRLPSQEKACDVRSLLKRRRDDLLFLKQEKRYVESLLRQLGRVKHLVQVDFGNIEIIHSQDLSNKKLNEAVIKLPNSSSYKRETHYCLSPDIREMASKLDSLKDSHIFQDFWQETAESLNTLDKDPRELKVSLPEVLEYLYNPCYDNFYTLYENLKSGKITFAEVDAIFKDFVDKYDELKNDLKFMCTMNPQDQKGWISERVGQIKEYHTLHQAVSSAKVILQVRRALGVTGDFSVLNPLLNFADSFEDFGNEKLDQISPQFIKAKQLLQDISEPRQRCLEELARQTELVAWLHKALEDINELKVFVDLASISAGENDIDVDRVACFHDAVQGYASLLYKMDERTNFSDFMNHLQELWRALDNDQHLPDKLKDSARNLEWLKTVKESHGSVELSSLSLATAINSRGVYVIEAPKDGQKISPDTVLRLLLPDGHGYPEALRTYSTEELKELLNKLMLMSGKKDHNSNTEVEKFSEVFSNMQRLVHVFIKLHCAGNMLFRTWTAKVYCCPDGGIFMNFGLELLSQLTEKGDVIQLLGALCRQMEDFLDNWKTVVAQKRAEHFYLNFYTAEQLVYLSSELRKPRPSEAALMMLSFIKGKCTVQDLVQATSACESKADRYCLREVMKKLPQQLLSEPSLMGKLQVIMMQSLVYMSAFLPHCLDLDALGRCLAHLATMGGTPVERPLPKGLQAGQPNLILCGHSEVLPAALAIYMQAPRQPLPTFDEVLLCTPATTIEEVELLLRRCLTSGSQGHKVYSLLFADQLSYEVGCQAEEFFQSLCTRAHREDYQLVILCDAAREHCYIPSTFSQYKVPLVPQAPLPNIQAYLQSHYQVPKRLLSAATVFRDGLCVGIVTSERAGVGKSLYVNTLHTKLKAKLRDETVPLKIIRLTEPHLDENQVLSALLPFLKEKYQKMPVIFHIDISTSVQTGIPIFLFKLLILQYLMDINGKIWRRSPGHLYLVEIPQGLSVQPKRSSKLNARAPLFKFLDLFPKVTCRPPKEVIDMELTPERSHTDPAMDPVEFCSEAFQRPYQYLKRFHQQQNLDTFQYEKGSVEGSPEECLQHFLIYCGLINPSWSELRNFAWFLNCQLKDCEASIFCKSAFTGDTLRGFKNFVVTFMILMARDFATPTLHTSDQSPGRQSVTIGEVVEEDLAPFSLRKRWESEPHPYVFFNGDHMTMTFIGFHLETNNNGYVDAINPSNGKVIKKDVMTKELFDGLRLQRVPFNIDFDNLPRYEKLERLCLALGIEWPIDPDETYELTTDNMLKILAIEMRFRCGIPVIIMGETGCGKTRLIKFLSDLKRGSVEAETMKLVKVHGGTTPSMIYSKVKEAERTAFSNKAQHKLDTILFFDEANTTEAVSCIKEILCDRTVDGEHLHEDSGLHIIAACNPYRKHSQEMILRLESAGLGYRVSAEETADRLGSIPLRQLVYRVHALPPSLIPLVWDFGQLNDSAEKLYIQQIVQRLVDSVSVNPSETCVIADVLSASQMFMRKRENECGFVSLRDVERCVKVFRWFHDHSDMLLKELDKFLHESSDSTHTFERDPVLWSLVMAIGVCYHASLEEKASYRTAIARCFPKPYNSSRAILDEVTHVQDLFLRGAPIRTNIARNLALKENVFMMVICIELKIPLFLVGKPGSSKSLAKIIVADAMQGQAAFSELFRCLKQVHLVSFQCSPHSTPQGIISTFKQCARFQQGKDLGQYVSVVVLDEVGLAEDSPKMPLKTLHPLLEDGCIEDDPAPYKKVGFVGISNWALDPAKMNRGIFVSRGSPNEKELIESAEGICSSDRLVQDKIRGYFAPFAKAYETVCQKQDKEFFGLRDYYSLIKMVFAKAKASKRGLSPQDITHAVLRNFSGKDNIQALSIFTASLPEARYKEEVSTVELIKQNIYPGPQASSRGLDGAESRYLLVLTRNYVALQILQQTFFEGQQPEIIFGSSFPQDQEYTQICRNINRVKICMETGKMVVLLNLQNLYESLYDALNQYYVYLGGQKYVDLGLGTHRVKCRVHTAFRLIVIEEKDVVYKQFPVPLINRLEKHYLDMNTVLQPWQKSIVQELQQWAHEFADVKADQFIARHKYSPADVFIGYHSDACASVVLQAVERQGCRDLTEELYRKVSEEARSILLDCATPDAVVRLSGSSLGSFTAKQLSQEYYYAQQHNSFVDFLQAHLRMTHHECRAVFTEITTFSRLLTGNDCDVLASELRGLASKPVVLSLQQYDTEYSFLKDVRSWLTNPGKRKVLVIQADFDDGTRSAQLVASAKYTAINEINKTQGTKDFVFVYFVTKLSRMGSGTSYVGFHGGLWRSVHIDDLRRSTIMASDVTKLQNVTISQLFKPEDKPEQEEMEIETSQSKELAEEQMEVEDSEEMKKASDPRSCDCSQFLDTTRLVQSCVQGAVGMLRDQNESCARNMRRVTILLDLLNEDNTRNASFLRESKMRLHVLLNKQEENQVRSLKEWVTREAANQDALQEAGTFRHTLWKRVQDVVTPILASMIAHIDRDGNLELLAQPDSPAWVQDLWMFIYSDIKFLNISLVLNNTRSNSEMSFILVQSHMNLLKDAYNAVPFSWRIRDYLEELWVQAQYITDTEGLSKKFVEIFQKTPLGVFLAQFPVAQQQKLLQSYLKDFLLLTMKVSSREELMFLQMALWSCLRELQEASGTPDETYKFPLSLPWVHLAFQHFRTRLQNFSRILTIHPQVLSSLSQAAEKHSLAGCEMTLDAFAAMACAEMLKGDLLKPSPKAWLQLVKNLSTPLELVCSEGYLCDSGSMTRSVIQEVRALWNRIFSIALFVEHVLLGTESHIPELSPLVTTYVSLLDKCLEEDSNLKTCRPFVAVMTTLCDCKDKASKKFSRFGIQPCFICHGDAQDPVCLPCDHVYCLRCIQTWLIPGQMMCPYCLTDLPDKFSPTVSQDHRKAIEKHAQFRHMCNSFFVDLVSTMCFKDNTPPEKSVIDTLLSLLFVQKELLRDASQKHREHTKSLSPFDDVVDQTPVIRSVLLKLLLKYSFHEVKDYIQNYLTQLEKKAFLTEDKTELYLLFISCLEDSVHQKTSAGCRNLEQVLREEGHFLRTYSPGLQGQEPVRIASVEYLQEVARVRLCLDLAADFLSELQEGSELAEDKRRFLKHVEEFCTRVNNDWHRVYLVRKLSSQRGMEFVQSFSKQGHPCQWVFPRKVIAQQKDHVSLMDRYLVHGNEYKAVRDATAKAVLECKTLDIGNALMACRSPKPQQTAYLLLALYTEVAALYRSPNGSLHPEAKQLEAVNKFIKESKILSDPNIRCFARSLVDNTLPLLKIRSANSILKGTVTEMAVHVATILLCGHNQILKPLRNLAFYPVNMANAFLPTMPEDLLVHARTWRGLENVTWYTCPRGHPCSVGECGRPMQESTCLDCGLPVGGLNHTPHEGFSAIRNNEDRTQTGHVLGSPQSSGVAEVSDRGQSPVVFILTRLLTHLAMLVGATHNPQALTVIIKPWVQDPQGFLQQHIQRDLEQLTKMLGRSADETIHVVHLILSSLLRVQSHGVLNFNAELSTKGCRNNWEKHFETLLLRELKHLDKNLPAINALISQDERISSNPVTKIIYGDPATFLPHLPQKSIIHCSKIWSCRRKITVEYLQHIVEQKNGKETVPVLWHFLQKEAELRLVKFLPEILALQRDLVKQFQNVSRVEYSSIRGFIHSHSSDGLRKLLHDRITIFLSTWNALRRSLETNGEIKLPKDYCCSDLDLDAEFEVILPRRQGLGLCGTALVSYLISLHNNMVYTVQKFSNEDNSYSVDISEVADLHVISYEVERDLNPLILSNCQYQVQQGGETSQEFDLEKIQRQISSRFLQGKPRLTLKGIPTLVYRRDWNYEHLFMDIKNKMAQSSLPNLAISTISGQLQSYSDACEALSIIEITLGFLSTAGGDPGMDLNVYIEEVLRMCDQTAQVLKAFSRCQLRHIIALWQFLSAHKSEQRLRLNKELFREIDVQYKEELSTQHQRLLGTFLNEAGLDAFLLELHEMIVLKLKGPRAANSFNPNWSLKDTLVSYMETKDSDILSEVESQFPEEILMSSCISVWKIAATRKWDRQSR
T2 sequence (E9Q555 whole entry R4753K, the tested form may be a part): as the sequence (E9Q555 whole entry, the tested form may be a part) above, with R4753K counted along it

As for `Nc1ncnc2c1ncn2[C@@H]1O[C@H](COP(=O)(O)OP(=O)(O)OP(=O)(O)O)[C@@H](O)[C@H]1O` [ATP], in test [1], the cryo-EM structure result was “unambiguously revealed a co-purified ATP molecule that is bound to AAA2”. In addition, the “NADH-coupled ATPase assay” value in test [2] is recorded as “ATPase activity of RNF213 is an order of magnitude lower than that of a processive”; in test [3] it was “does not significantly alter the enzymatic properties of RNF213 in vitro”.
